Experimental data: paper PMC5681660, “Reduced hepatitis B and D viral entry using clinically applied drugs as novel inhibitors of the bile acid transporter NTCP” (Scientific Reports, 2017)
Where a name gives a salt, the structure may show the parent alone. Read-outs that look alike come from different tables or passages of the source.

Key:
human NTCP [1] = target: T1, human NTCP (Homo sapiens, UniProt Q14973); test: Screening taurocholate uptake assay (96-well, [14C]taurocholate, 10 µM drug)
T1 sequence (Q14973 1-349): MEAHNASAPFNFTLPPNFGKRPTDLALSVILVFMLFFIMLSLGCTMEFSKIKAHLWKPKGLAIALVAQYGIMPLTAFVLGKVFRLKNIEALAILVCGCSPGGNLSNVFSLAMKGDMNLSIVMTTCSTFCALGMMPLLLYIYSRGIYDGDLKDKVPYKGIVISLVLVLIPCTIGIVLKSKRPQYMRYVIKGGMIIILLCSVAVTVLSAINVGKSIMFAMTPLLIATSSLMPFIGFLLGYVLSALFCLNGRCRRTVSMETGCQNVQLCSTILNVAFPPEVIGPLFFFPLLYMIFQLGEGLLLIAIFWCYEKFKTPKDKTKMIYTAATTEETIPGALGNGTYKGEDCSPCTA

human NTCP [2] = target: T1, human NTCP; test: Screening fluorescent competitive Myrcludex B-FITC binding assay (96-well, 10 µM drug)
[3] = Prestwick library screen, taurocholate uptake, 10 µM drug
[4] = ranking score beside the functional and binding assay B-scores of the screen
[5] = Prestwick library screen, Myrcludex B-FITC binding, 10 µM drug
[6] = Prestwick library screen, 10 µM drug, B-score of taurocholate uptake
[7] = combined ranking from functional and binding assay B-scores
[8] = Prestwick library screen, 10 µM drug, B-score of Myrcludex B-FITC binding
[9] = combined ranking from functional and binding screening assays
[10] = screen, 10 µM drug, taurocholate uptake
[11] = screen, 10 µM drug, Myrcludex B-FITC binding

SMILES	B-score functional assay (human NTCP [1]; [3])	Ranking score (human NTCP [1]; [4])	B-score binding assay (human NTCP [2]; [5])	B-score functional assay (human NTCP [1]; [6])	Ranking score (human NTCP [1]; [7])	B-score binding assay (human NTCP [2]; [8])	other results
CCCNCC(O)COc1ccccc1C(=O)CCc1ccccc1 (centres unmarked) [Propafenone hydrochloride]	-0.211	771.984	2.716				
CCCOc1ccc(C(=O)OCCN(CC)CC)cc1N [Proparacaine hydrochloride]				0.236	984.211	1.832	
CC(C)c1cccc(C(C)C)c1O [Propofol]							B-score functional assay (human NTCP [1]): -4.147; Ranking score (human NTCP [1]): 144.551; B-score binding assay (human NTCP [2]): -0.036
CCCc1cc(=O)[nH]c(=S)[nH]1 [Propylthiouracil]	0.437	823.744	0.14				
CCCc1cc(C(N)=S)ccn1 [Prothionamide]	-0.17	776.121	2.241				
CNCCCC1c2ccccc2C=Cc2ccccc21 [Protriptyline hydrochloride]							Ranking score (human NTCP [1]; [9]): 390.896; B-score functional assay (human NTCP [1]; [10]): -0.483; B-score binding assay (human NTCP [2]; [11]): -0.431
Cc1ncc(CO)c(CO)c1O [Pyridoxine hydrochloride]				0.632	1004.23	1.062	
COc1ccc(CN(CCN(C)C)c2ccccn2)cc1 [Pyrilamine maleate]							Ranking score (human NTCP [1]; [9]): 458.048; B-score functional assay (human NTCP [1]; [10]): -0.86; B-score binding assay (human NTCP [2]; [11]): 0.121
CCN(CC)CCCC(C)Nc1c2ccc(Cl)cc2nc2ccc(OC)cc12.Cl.Cl (centres unmarked) [Quinacrine dihydrochloride hydrate]							Ranking score (human NTCP [1]; [9]): 399.375; B-score functional assay (human NTCP [1]; [10]): -2.093; B-score binding assay (human NTCP [2]; [11]): 7.101
CCOC(=O)[C@H](CCc1ccccc1)N[C@@H](C)C(=O)N1Cc2ccccc2C[C@H]1C(=O)O [Quinapril HCl]				2.971	1103.9	0.741	
CCC1NC(=O)c2cc(S(N)(=O)=O)c(Cl)cc2N1 (centres unmarked) [Quinethazone]	1.708	787.128	-0.124				
C=C[C@H]1CN2CC[C@H]1C[C@@H]2[C@@H](O)c1ccnc2ccc(OC)cc12.Cl.O [Quinidine hydrochloride monohydrate]		834.825	-0.002				
O=C(O)/C=C\C(=O)O.O=C(O)/C=C\C(=O)O.c1ccc2nc(N3CCNCC3)ccc2c1 [Quipazine dimaleate salt]				0.305	954.17	1.213	
COCCCOc1ccnc(C[S+]([O-])c2nc3ccccc3[nH]2)c1C (centres unmarked) [Rabeprazole Sodium salt]	1.371	764.457	-0.144				
CCN1CCC[C@H]1CNC(=O)c1c(O)c(Cl)cc(Cl)c1OC [Raclopride]				0.507	891.19	0.374	
Cc1nc2ccc(CN(C)c3ccc(C(=O)N[C@@H](CCC(=O)O)C(=O)O)s3)cc2c(=O)[nH]1 [Raltitrexed]							Ranking score (human NTCP [1]; [9]): 413.367; B-score functional assay (human NTCP [1]; [10]): -1.033; B-score binding assay (human NTCP [2]; [11]): 0.04
CCOC(=O)[C@H](CCc1ccccc1)N[C@@H](C)C(=O)N1[C@H](C(=O)O)C[C@@H]2CCC[C@@H]21 [Ramipril]				0.852	1101.41	1.901	
C#CCN[C@@H]1CCc2ccccc21 [Rasagiline]	-0.098	667.796	0.275				
O=C(NC(Cc1cc(=O)[nH]c2ccccc12)C(=O)O)c1ccc(Cl)cc1 (centres unmarked) [Rebamipide]				0.089	955.076	2.49	
CCOc1ccccc1OC(c1ccccc1)C1CNCCO1.CS(=O)(=O)O (centres unmarked) [Reboxetine mesylate]	1.175	814.737	-0.028				
COC(=O)[C@H]1[C@H]2C[C@@H]3c4[nH]c5cc(OC)ccc5c4CCN3C[C@H]2C[C@@H](OC(=O)c2cc(OC)c(OC)c(OC)c2)[C@@H]1OC [Reserpine]	0.519	842.122	0.147				
NC(=O)c1ncn([C@@H]2O[C@H](CO)[C@@H](O)[C@H]2O)n1 [Ribavirin]	0.312	712.803	-0.029				

SMILES	B-score functional assay (human NTCP [1]; [3])	Ranking score (human NTCP [1]; [4])	B-score binding assay (human NTCP [2]; [5])	B-score functional assay (human NTCP [1]; [6])	Ranking score (human NTCP [1]; [7])	B-score binding assay (human NTCP [2]; [8])	other results
NC[C@H]1O[C@H](O[C@H]2[C@H](O[C@@H]3O[C@H](CO)[C@@H](O)[C@H]3O)[C@@H](O)[C@H](N)C[C@@H]2N)[C@H](N)[C@@H](O)[C@@H]1O.O=S(=O)(O)O [Ribostamycin sulfate salt]				0.797	1035.72	1.097	
CO[C@H]1/C=C/O[C@@]2(C)Oc3c(C)c(O)c4c(c3C2=O)C2=NC3(CCN(CC(C)C)CC3)NC2=C(NC(=O)/C(C)=C\C=C\[C@H](C)[C@H](O)[C@@H](C)[C@@H](O)[C@@H](C)[C@H](OC(C)=O)[C@@H]1C)C4=O [Rifabutin]	1.309	731.029	-0.23				
CC(N)C12CC3CC(CC(C3)C1)C2 (centres unmarked) [Rimantadine Hydrochloride]	0.074	753.923	0.171				
CCC(=O)[C@@]1(C)[C@H](C)C[C@H]2[C@@H]3CCC4=CC(=O)C=C[C@]4(C)[C@H]3[C@@H](O)C[C@@]21C [Rimexolone]							Ranking score (human NTCP [1]; [9]): 362.647; B-score functional assay (human NTCP [1]; [10]): -0.597; B-score binding assay (human NTCP [2]; [11]): -0.495
O.O=P(O)(O)C(O)(Cc1cccnc1)P(=O)(O)O [Risedronic acid monohydrate]				1.315	1045.06	0.727	
Cc1nc2n(c(=O)c1CCN1CCC(c3noc4cc(F)ccc34)CC1)CCCC2 [Risperidone]				0.025	888.472	1.724	
CC(NCCc1ccc(O)cc1)C(O)c1ccc(O)cc1 (centres unmarked) [Ritodrine hydrochloride]				1	1111.92	1.66	
CN(C)CCc1c[nH]c2ccc(Cn3cncn3)cc12 [Rizatriptan benzoate]	-0.205	781.971	3.436				
COc1ccc(C2CNC(=O)C2)cc1OC1CCCC1 (centres unmarked) [Rolipram]				0.524	872.569	0.265	
Cn1c([N+](=O)[O-])cnc1COC(N)=O [Ronidazole]							Ranking score (human NTCP [1]; [9]): 432.42; B-score functional assay (human NTCP [1]; [10]): -0.446; B-score binding assay (human NTCP [2]; [11]): -0.252
CCCN(CCC)CCc1cccc2c1CC(=O)N2 [Ropinirole HCl]	-0.072	825.121	2.082				
CC(=O)OCC(=O)NCCCOc1cccc(CN2CCCCC2)c1 [Roxatidine Acetate HCl]							Ranking score (human NTCP [1]; [9]): 297.686; B-score functional assay (human NTCP [1]; [10]): -2.305; B-score binding assay (human NTCP [2]; [11]): 0.239
OCc1cc(C(O)CNCCCCCCOCCCCc2ccccc2)ccc1O (centres unmarked) [Salmeterol]							Ranking score (human NTCP [1]; [9]): 391.804; B-score functional assay (human NTCP [1]; [10]): 0.004; B-score binding assay (human NTCP [2]; [11]): -0.999
O=C(O)c1cn(-c2ccc(F)cc2)c2cc(N3CCNCC3)c(F)cc2c1=O [Sarafloxacin]							Ranking score (human NTCP [1]; [9]): 305.771; B-score functional assay (human NTCP [1]; [10]): -0.49; B-score binding assay (human NTCP [2]; [11]): -0.967
Clc1ccc(C(Cn2ccnc2)OCc2csc3c(Cl)cccc23)c(Cl)c1 (centres unmarked) [Sertaconazole nitrate]	-0.094	730.855	0.814				
O=C1NCCN1CCN1CCC(c2cn(-c3ccc(F)cc3)c3ccc(Cl)cc23)CC1 [Sertindole]				0.957	1028.08	0.84	
CN[C@H]1CC[C@@H](c2ccc(Cl)c(Cl)c2)c2ccccc21 [Sertraline]							Ranking score (human NTCP [1]; [9]): 426.035; B-score functional assay (human NTCP [1]; [10]): 0.805; B-score binding assay (human NTCP [2]; [11]): -1.357
CCCc1nn(C)c2c(=O)[nH]c(-c3cc(S(=O)(=O)N4CCN(C)CC4)ccc3OCC)nc12 [Sildenafil]	0.011	755.751	0.383				
CN[C@@H]1[C@@H](O)[C@@H](O[C@@H]2[C@@H](O)[C@H](O[C@H]3OC(CN)=CC[C@H]3N)[C@@H](N)C[C@H]2N)OC[C@]1(C)O [Sisomicin sulfate]				1.589	1018.48	0.455	
CC(C)NCC(O)c1ccc(NS(C)(=O)=O)cc1 (centres unmarked) [Sotalol hydrochloride]				0.17	866.77	0.649	
CC(=O)N[C@@H](CC(=O)N[C@@H](CCC(=O)O)C(=O)O)C(=O)O [Spaglumic acid]							Ranking score (human NTCP [1]; [9]): 411.514; B-score functional assay (human NTCP [1]; [10]): -0.043; B-score binding assay (human NTCP [2]; [11]): -0.793
CC(=O)S[C@@H]1CC2=CC(=O)CC[C@]2(C)[C@H]2CC[C@@]3(C)[C@@H](CC[C@@]34CCC(=O)O4)[C@H]12 [Spironolactone]	-0.089	751.977	0.972				
